Measurements taken from PMC10095442, “Intelligent De Novo Design of Novel Antimicrobial Peptides against Antibiotic-Resistant Bacteria Strains” (International Journal of Molecular Sciences, 2023).
Residues, ends and D or L forms follow the SMILES beside them.

Key:
[1] = system: carbapenem-susceptible P. aeruginosa (S07-10-0059); type: cell-based, Pseudomonas aeruginosa; settings: carbapenem-susceptible (S07-10-0059)
Description: (§1) MIC assays were conducted to determine the antibacterial spectrum of these peptides. MIC is defined as the minimum concentration of a reagent, viz., peptide, in this study, required to inhibit bacterial growth after overnight incubation. Microbial strains were cultured in an L.B. medium, and midlogarithmic-phase organisms were used in the antibacterial assays. All bacteria were inoculated in an L.B. medium (approximately 10^5 CFU/mL), and MIC assays were performed with various concentrations of each peptide. All activity measurements were conducted at least three times.

[2] = system: carbapenem-resistant P. aeruginosa (M06-06-0213); type: cell-based, Pseudomonas aeruginosa; settings: P. aeruginosa M06-06-0213 (carbapenem-resistant clinical isolate); L.B. medium, approx. 10^5 CFU/mL, overnight incubation; at least three times
Description: as §1

[3] = system: methicillin-resistant S. aureus (N07-10-0043); type: cell-based, Staphylococcus aureus; settings: S. aureus MRSA N07-10-0043 (methicillin-resistant clinical isolate); L.B. medium, approx. 10^5 CFU/mL, overnight incubation; at least three times
Description: as §1

[4] = system: methicillin-susceptible S. aureus (S01-10-0202); type: cell-based, Staphylococcus aureus; settings: methicillin-susceptible (S01-10-0202)
Description: as §1

Measured: Antibacterial activity (MIC)

CC(C)[C@@H]1NC(=O)[C@H](CCCNC(=N)N)NC(=O)[C@H](Cc2ccccc2)NC(=O)[C@@H](NC(=O)[C@H](Cc2c[nH]c3ccccc23)NC(=O)[C@H](CCCNC(=N)N)NC(=O)[C@@H](N)CCCNC(=N)N)CSSC[C@@H](C(=O)N[C@@H](CCCNC(=N)N)C(N)=O)NC(=O)[C@H](CCCCN)NC(=O)[C@H](CCCNC(=N)N)NC(=O)[C@H](Cc2ccc(O)cc2)NC(=O)[C@@H]2CSSC[C@H](NC1=O)C(=O)N[C@@H](Cc1ccc(O)cc1)C(=O)N[C@@H](CCCNC(=N)N)C(=O)NCC(=O)N[C@@H](Cc1ccccc1)C(=O)N2 [polyphemusin I] (HELM PEPTIDE1{R.R.W.C.F.R.V.C.Y.R.G.F.C.Y.R.K.C.R.[am]}$PEPTIDE1,PEPTIDE1,4:R3-17:R3|PEPTIDE1,PEPTIDE1,8:R3-13:R3$$$V2.0; N-terminus and C-terminus assumed)
>50 µg/mL: [1] | [2] | [3] | [4]
